pIC50: −log10 of the molar value. *1 amine or outer side, *2 acyl side, *3 side chain or, on linkers, in order; H or OH if unused. Where a SMILES comes first, the peptide text is derived from it. Bridges are numbered along the chain shown (N, C = ends). [ ]: non-standard residue; d: D form. Abu(4-yl) = O=C([C@H](CC[*:3])N[*:1])[*:2]; 2Nal = N[C@@H](Cc1ccc2ccccc2c1)C(=O)O; αMeK = C[C@](N)(CCCCN)C(=O)O
Assays:
[1] = Half life in simulated intestinal fluid at 20 uM by LC-MS/MS analysis; format: ADME
[2] = Inhibition of interleukin-23 binding to rat interleukin-23 receptor incubated for 2 hrs by competitive binding ELISA
Interleukin-23 receptor [3] = target: T1, Interleukin-23 receptor (Homo sapiens, UniProt Q5VWK5); assay: Inhibition of interleukin-23 receptor in human DB cells assessed as reduction in IL-23-stimulated STAT3 phosphorylation incubated for 30 mins by HTRF assay; format: cell-based
T1 sequence (Q5VWK5 whole entry): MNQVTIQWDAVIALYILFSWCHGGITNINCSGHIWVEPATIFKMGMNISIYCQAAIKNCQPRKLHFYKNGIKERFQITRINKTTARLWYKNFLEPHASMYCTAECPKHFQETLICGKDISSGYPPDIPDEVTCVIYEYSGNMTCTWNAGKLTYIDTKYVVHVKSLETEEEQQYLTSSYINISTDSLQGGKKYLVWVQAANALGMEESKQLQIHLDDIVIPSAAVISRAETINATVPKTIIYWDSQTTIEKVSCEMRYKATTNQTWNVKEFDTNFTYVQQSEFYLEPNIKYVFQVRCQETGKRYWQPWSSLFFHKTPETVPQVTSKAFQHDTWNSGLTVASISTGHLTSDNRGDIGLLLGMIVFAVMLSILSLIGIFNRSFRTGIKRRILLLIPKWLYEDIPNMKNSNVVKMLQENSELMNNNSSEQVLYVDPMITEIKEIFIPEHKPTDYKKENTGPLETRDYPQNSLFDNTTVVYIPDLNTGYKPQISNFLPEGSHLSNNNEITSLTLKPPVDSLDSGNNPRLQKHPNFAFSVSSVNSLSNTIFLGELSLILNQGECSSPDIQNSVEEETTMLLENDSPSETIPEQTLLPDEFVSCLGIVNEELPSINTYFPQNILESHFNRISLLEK

[4] = Half life in simulated gastric fluid at 20 uM by LC-MS/MS analysis; format: ADME
Interleukin-23 receptor [5] = target: T1, Interleukin-23 receptor; assay: Inhibition of interleukin-23 binding to human interleukin-23 receptor incubated for 2 hrs by competitive binding ELISA

Compound	half-life at 20 µM [1]	pIC50 [2]	pIC50 (Interleukin-23 receptor [3])	half-life at 20 µM [4]	pIC50 (Interleukin-23 receptor [5])
CC(=O)NCCCC[C@H](NC(=O)[C@](C)(CCCCN)NC(=O)[C@H](Cc1ccc2ccccc2c1)NC(=O)[C@H](Cc1ccc(C(N)=O)cc1)NC(=O)[C@@H]1CSCC[C@H](NC(C)=O)C(=O)N[C@@H](CCC(N)=O)C(=O)N[C@@H]([C@@H](C)O)C(=O)N[C@@H](Cc2c[nH]c3ccccc23)C(=O)N[C@@H](CCC(N)=O)C(=O)N1)C(=O)N[C@@H](CC(N)=O)C(=O)NCC(N)=O	1 to 3 h	7.00 to 7.60	> 8.00	< 1 h	7.60 to 8.00
CC(=O)NCCCC[C@H](NC(=O)[C@](C)(CCCCN)NC(=O)[C@H](Cc1ccc2ccccc2c1)NC(=O)[C@H](Cc1ccc(OCCN)cc1)NC(=O)[C@@H]1CSCC[C@H](NC(=O)CCC(=O)O)C(=O)N[C@@H](CCC(N)=O)C(=O)N[C@@H]([C@@H](C)O)C(=O)N[C@@H](Cc2c[nH]c3ccccc23)C(=O)N[C@@H](CCC(N)=O)C(=O)N1)C(=O)N[C@@H](CC(N)=O)C(=O)NCC(N)=O	> 6 h	> 8.00	> 8.00	3 to 6 h	> 8.00
CC(=O)N[C@H](C(=O)N[C@@H](CCC(N)=O)C(=O)N[C@H](C(=O)N[C@@H](Cc1c[nH]c2ccccc12)C(=O)N[C@@H](CCC(N)=O)C(=O)N[C@H](C(=O)N[C@@H](Cc1ccc(OCCN)cc1)C(=O)N[C@@H](Cc1ccc2ccccc2c1)C(=O)N[C@@](C)(CC(C)C)C(=O)N[C@@H](CCC(N)=O)C(=O)N[C@@H](CC(N)=O)C(=O)N[C@@H](CC(N)=O)C(N)=O)C(C)(C)S)[C@@H](C)O)C(C)(C)S	> 6 h	> 8.00	> 8.00	> 6 h	> 8.00
COc1ccc(C[C@H](NC(=O)[C@@H]2CSCC[C@H](NC(C)=O)C(=O)N[C@@H](CCC(N)=O)C(=O)N[C@@H]([C@@H](C)O)C(=O)N[C@@H](Cc3c[nH]c4ccccc34)C(=O)N[C@@H](CCC(N)=O)C(=O)N2)C(=O)N[C@@H](Cc2ccc3ccccc3c2)C(=O)N[C@@](C)(CCCCN)C(=O)N[C@@H](CCCCNC(C)=O)C(=O)N[C@@H](CC(N)=O)C(=O)NCC(N)=O)cc1	3 to 6 h	7.60 to 8.00	> 8.00	< 1 h	> 8.00
CC(=O)N[C@H]1CCSC[C@@H](C(=O)N[C@@H](Cc2ccc3ccccc3c2)C(=O)N[C@@H](Cc2ccc3ccccc3c2)C(=O)N[C@@](C)(CCCCN)C(=O)N[C@@H](CCC(=O)O)C(=O)N[C@@H](CC(N)=O)C(=O)NCC(N)=O)NC(=O)[C@H](CCC(N)=O)NC(=O)[C@H](Cc2c[nH]c3ccccc23)NC(=O)[C@H]([C@@H](C)O)NC(=O)[C@H](CCC(N)=O)NC1=O (Ac-[Abu(4-yl)]QTWQC[2Nal][2Nal][αMeK]ENG-NH2; thioether 1-6)	3 to 6 h	7.00 to 7.60		< 1 h	7.60 to 8.00
CC(=O)N[C@H]1CCSC[C@@H](C(=O)N[C@@H](Cc2ccc(OCCN)cc2)C(=O)N[C@@H](Cc2ccc3ccccc3c2)C(=O)NC2(C(=O)N[C@@H](CCC(=O)O)C(=O)N[C@@H](CC(N)=O)C(=O)N[C@@H](CC(N)=O)C(N)=O)CCCC2)NC(=O)[C@H](CCC(N)=O)NC(=O)[C@H](Cc2c[nH]c3ccccc23)NC(=O)[C@H]([C@@H](C)O)NC(=O)[C@H](CCC(N)=O)NC1=O	2 to 3 h	> 8.00	> 8.00	> 6 h	
CC(=O)N[C@H]1CCSC[C@@H](C(=O)N[C@@H](Cc2ccc(OCCN)cc2)C(=O)N[C@@H](Cc2ccc3ccccc3c2)C(=O)NC2(C(=O)N[C@@H](CCC(=O)O)C(=O)N[C@@H](CC(N)=O)C(=O)N[C@@H](CC(N)=O)C(N)=O)CCNCC2)NC(=O)[C@H](CCC(N)=O)NC(=O)[C@H](Cc2c[nH]c3ccccc23)NC(=O)[C@H]([C@@H](C)O)NC(=O)[C@H](CCC(N)=O)NC1=O	> 6 h	> 8.00	> 8.00	> 6 h	
